SMILES strings stand for the structures.

The subject of this assay is recombinant guanylate cyclase reporter cell line. Nature of the assay: Effect on a recombinant guanylate cyclase reporter cell line. It is filed as cell-based. The following applies: in some cases mean values for individual determinations, read-out: MEC (minimum effective concentration). The protocol: B-2. Effect on a Recombinant Guanylate Cyclase Reporter Cell Line
The cellular activity of the compounds according to the invention is determined using a recombinant guanylate cyclase reporter cell line, as described in F. Wunder et al., Anal. Biochem. 339, 104-112 (2005).
Representative MEC values (MEC=minimum effective concentration) for the compounds of the invention are shown in the table below (in some cases as mean values for individual determinations): […]
In the case of `COc1cc(OCc2c(F)cccc2F)c2nc(C)c(C(=O)NN3CCOCC3)n2c1` [Example 21], the minimal effective concentration was determined as 3 µM.
The figure for `Cc1cc(OCc2c(F)cccc2F)c2nc(C)c(C(=O)NOCc3ccccc3C#N)n2c1` [Example 59] is 1 µM; for `Cc1cc(OCc2c(F)cccc2F)c2nc(C)c(C(=O)NN3CCC(C(F)(F)F)C3)n2c1` (stereo not shown) [Example 79, 8-[(2,6-Difluorobenzyl)oxy]-2,6-dimethyl-N-[3-(trifluoromethyl)pyrrolidin-1-yl]imidazo[1,2-a]pyridine-3-carboxamide] it is 0.1 µM.
On to `Cc1cc(OCc2c(F)cccc2F)c2nc(C)c(C(=O)NNc3cnc4ccccc4n3)n2c1` [Example 56], for which the minimal effective concentration was 1 µM.
On to `Cc1cc(OCc2c(F)cccc2F)c2nc(C)c(C(=O)NOCC3CC3)n2c1` [Example 77, N-(Cyclopropylmethoxy)-8[(2,6-difluorobenzyl)oxy]-2,6-dimethylimidazo[1,2-a]pyridine-3-carboxamide], for which the minimal effective concentration came out at 0.3 µM.
As for `Cc1cc(OCc2c(F)cccc2F)c2nc(C)c(C(=O)NOC3COC3)n2c1` [Example 6], the minimal effective concentration is 1 µM.
On to `Cc1cc(OCc2c(F)cccc2F)c2nc(C)c(C(=O)NOCC(F)(F)F)n2c1` [Example 81, 8-[(2,6-Difluorobenzyl)oxy]-2,6-dimethyl-N-(2,2,2-trifluoroethoxy)imidazo[1,2-a]pyridine-3-carboxamide], for which the minimal effective concentration came out at 0.65 µM.
Take `CCCCCCC(CCC)NNC(=O)c1c(C)nc2c(OCc3c(F)cccc3F)cc(C)cn12` (stereo not shown) [Example 44]: the minimal effective concentration turned out to be 3 µM.
As for `O=C(NN1CCOCC1)c1cnc2c(OCc3c(F)cccc3F)cccn12` [Example 23], the figure is 10 µM; as for `CCCCCCC(C)NNC(=O)c1c(C)nc2c(OCc3c(F)cccc3F)cc(C)cn12` (stereo not shown) [Example 42], 3 µM.
In the case of `Cc1cc(OCc2c(F)cccc2F)c2nc(C)c(C(=O)NNc3cc(Cl)c(C)cc3C)n2c1` [Example 58], the minimal effective concentration stood at 0.3 µM.
As to `Cc1cc(OCc2c(F)cccc2F)c2nc(C)c(C(=O)NOCCN)n2c1` [Example 7, N-(2-Aminoethoxy)-8-[(2,6-difluorobenzyl)oxy]-2,6-dimethylimidazo[1,2-a]pyridine-3-carboxamide hydrate], the minimal effective concentration is 1 µM.
Turning to `Cc1cc(OCc2c(F)cccc2F)c2nc(C)c(C(=O)NNCc3ccccc3)n2c1` [Example 67], the minimal effective concentration was found to be 1 µM.
The figure for `Cc1cc(OCc2c(F)cccc2F)c2nc(C)c(C(=O)NNC(=O)C3CCCC3)n2c1` [Example 31] is 0.3 µM; for `Cc1cc(OCc2c(F)cccc2F)c2nc(C)c(C(=O)NNC(C)(C)C)n2c1` [Example 38] it is 0.3 µM.
The figure for `Cc1cc(OCc2c(F)cccc2F)c2nc(C)c(C(=O)NNc3ccnc4c(F)cccc34)n2c1` [Example 57] is 1 µM; for `Cc1cc(OCc2c(F)cccc2F)c2nc(C)c(C(=O)NOCCO)n2c1` [Example 1, 8-[(2,6-Difluorobenzyl)oxy]-N-(2-hydroxyethoxy)-2,6-dimethylimidazo[1,2-a]pyridine-3-carboxamide] it is 0.3 µM; for `Cc1cc(OCc2c(F)cccc2F)c2nc(C)c(C(=O)NOC[C@H](O)CO)n2c1` [Example 11, 8-[(2,6-Difluorobenzyl)oxy]-N-{[(2R)-2,3-dihydroxypropyl]oxy}-2,6-dimethylimidazo[1,2-a]pyridine-3-carboxamide] it is 1 µM.
Regarding `Cc1cc(OCc2c(F)cccc2F)c2nc(C)c(C(=O)NNC(=O)C3CC3)n2c1` [Example 60], the minimal effective concentration worked out at 1 µM.
As for `Cc1cc(OCc2c(F)cccc2F)c2nc(C)c(C(=O)NNC(=O)CN3CCOCC3)n2c1` [Example 76, 8-[(2,6-Difluorobenzyl)oxy]-2,6-dimethyl-N′-(morpholin-4-ylacetyl)imidazo[1,2-a]pyridine-3-carbohydrazide], the figure is 0.3 µM.
On to `Cc1cc(OCc2c(F)cccc2F)c2nc(C)c(C(=O)NNc3ccc(Cl)c(Cl)c3)n2c1` [Example 52], for which the minimal effective concentration stood at 0.3 µM.
As for `Cc1cc(OCc2c(F)cccc2F)c2nc(C)c(C(=O)NNC(C)C)n2c1` [Example 69], the figure is 10 µM; as for `CCCc1nc2c(OCc3c(F)cccc3F)cc(C)cn2c1C(=O)NN1CCOCC1` [Example 17], 10 µM.
As for `CSCCNNC(=O)c1c(C)nc2c(OCc3c(F)cccc3F)cc(C)cn12` [Example 66], the figure is 3 µM.
On to `Cc1cc(C)cc(NNC(=O)c2c(C)nc3c(OCc4c(F)cccc4F)cc(C)cn23)c1` [Example 53], for which the minimal effective concentration worked out at 1 µM.
Take `Cc1cc(OCc2c(F)cccc2F)c2nc(C)c(C(=O)NNC3CCCCC3)n2c1` [Example 74]: the minimal effective concentration was determined as 3 µM.
Consider `Cc1cc(OCc2c(F)cccc2F)c2nc(C)c(C(=O)NNc3cccc(C(F)(F)F)c3)n2c1` [Example 45], for which the minimal effective concentration is 0.3 µM.
Take `Cc1cc(OCc2c(F)cccc2F)c2nc(C)c(C(=O)NOCC(=O)NCc3ccc(Cl)cc3)n2c1` [Example 4]: the minimal effective concentration worked out at 3 µM.
The figure for `Cc1cc(OC(C)c2c(F)cccc2F)c2nc(C)c(C(=O)NOCCO)n2c1` (stereo not shown) [Example 13] is 10 µM.
For the compound `CCCCNNC(=O)c1c(C)nc2c(OCc3c(F)cccc3F)cc(C)cn12` [Example 63], the minimal effective concentration worked out at 3 µM.
As for `CONC(=O)c1c(C)nc2c(OCc3c(F)cccc3F)cc(C)cn12` [Example 29], the figure is 1 µM; as for `Cc1cc(OCc2c(F)cccc2F)c2nc(C)c(C(=O)NNCc3csc(C)n3)n2c1` [Example 65], 1 µM; as for `Cc1cc(OCc2c(F)cccc2F)c2nc(C)c(C(=O)NNc3cccc(Oc4ccccc4)c3)n2c1` [Example 36], 10 µM.
Take `Cc1cc(OCc2c(F)cccc2F)c2nc(C)c(C(=O)NNC(=O)CN(C)C)n2c1` [Example 37]: the minimal effective concentration came out at 0.1 µM.
The figure for `COCCC(=O)NNC(=O)c1c(C)nc2c(OCc3c(F)cccc3F)cc(C)cn12` [Example 33] is 0.3 µM; for `CCc1nc2c(OCc3c(F)cccc3F)cc(C)cn2c1C(=O)NN1CCOCC1` [Example 20] it is 1 µM.
Regarding `Cc1cc(OCc2c(F)cccc2F)c2nc(C)c(C(=O)NN3CCCCCC3)n2c1` [Example 62], the minimal effective concentration is 0.1 µM.
The figure for `Cc1cc(OCc2c(F)cccc2F)c2nc(C)c(C(=O)NNc3ccc4ccccc4c3)n2c1` [Example 34] is 1 µM; for `Cc1nc2c(OCC3CCCCC3)cccn2c1C(=O)NN1CCOCC1` [Example 15] it is 1 µM.
For `Cc1cc(OCc2c(F)cccc2F)c2nc(C)c(C(=O)NNc3ccc(F)cc3)n2c1` [Example 55], the minimal effective concentration stood at 0.1 µM.
As for `C=CCONC(=O)c1c(C)nc2c(OCc3c(F)cccc3F)cc(C)cn12` [Example 28], the figure is 0.3 µM.
The figure for `Cc1cc(OCc2c(F)cccc2F)c2nc(C)c(C(=O)NNc3ccc(C(C)(C)C)cc3)n2c1` [Example 47] is 3 µM; for `Cc1cc(OCc2c(F)cccc2F)c2nc(C)c(C(=O)NNCC(F)(F)F)n2c1` [Example 41] it is 0.3 µM.
The figure for `Cc1cc(OCc2c(F)cccc2F)c2nc(C)c(C(=O)NNC3CS(=O)(=O)CC3C)n2c1` (stereo not shown) [Example 72] is 3 µM; for `Cc1cc(OCc2c(F)cccc2F)c2nc(C)c(C(=O)NNc3nnc(C(C)(C)C)s3)n2c1` [Example 35] it is 3 µM; for `CCNNC(=O)c1c(C)nc2c(OCc3c(F)cccc3F)cc(C)cn12` [Example 61] it is 10 µM.
With `Cc1cc(OCc2c(F)cccc2F)c2nc(C)c(C(=O)NNc3ccc(Cl)cc3)n2c1` [Example 46], the minimal effective concentration was 0.1 µM.
Consider `Cc1cc(OCc2c(F)cccc2F)c2nc(C)c(C(=O)NN3CCN(CCO)CC3)n2c1` [Example 30], for which the minimal effective concentration turned out to be 1 µM.
The figure for `Cc1cc(OCc2c(F)cccc2F)c2nc(C)c(C(=O)NOC(C)c3ccccc3)n2c1` (racemic) [Example 78, rac-8-[(2,6-Difluorobenzyl)oxy]-2,6-dimethyl-N-(1-phenylethoxy)imidazo[1,2-a]pyridine-3-carboxamide] is 1 µM; for `Cc1cc(OCc2c(F)cccc2F)c2nc(C)c(C(=O)NOCC3CCCN3)n2c1` (stereo not shown) [Example 8] it is 3 µM; for `Cc1cc(OCc2c(F)cccc2F)c2nc(C)c(C(=O)NOCCN(C)C)n2c1` [Example 2] it is 1 µM.
For `Cc1cccc(NNC(=O)c2c(C)nc3c(OCc4c(F)cccc4F)cc(C)cn23)c1` [Example 39], the minimal effective concentration turned out to be 0.3 µM.
The figure for `COc1ccc(F)c(COc2cc(C)cn3c(C(=O)NN4CCOCC4)c(C)nc23)c1F` [Example 25] is 10 µM.
The figure for `COCC(=O)NNC(=O)c1c(C)nc2c(OCc3c(F)cccc3F)cc(C)cn12` [Example 32] is 1 µM.
As for `Cc1cc(OCc2c(F)cccc2F)c2nc(C)c(C(=O)NNC3CCCC3O)n2c1` (stereo not shown) [Example 70], the figure is 0.3 µM; as for `O=C(NOCCO)c1cnc2c(OCc3c(F)cccc3F)cccn12` [Example 14], 10 µM.
Take `Cc1cc(OCc2c(F)cccc2F)c2nc(C)c(C(=O)NNC(=O)CN)n2c1` [Example 75, N′-(Aminoacetyl)-8-[(2,6-difluoroenzyl)oxy]-2,6-dimethylimidazo[1,2-a]pyridine-3-carbohydrazide]: the minimal effective concentration stood at 1 µM.
With `Cc1cc(OCc2c(F)cccc2F)c2nc(C)c(C(=O)NNc3ccc(OC(F)(F)F)cc3)n2c1` [Example 48], the minimal effective concentration stood at 1 µM.

The record behind these values is patent US20170057954A1, “SUBSTITUTED IMIDAZO[1,2-A]PYRIDINECARBOXAMIDES AND THEIR USE” (Bayer Pharma Aktiengesellschaft, priority 2014, published 2017).
